Measured values published in paper PMC3914206.

Columns and labels:
Assay type in all cases: binding
Parameters in all cases: KINOMEscan: ABL1(F317L)-phosphorylated / KINOMEscan: ABL1(H396P)-nonphosphorylated / KINOMEscan: ABL1(H396P)-phosphorylated / KINOMEscan: ABL1(M351T)-phosphorylated / KINOMEscan: ABL1(T315I)-phosphorylated / KINOMEscan: ABL1-nonphosphorylated / KINOMEscan: ABL1-phosphorylated / KINOMEscan: ACVR2A / KINOMEscan: ACVR2B / KINOMEscan: ADCK3 / KINOMEscan: ADCK4 / KINOMEscan: AKT1 / KINOMEscan: AKT3 / KINOMEscan: ALK / KINOMEscan: ARK5 / KINOMEscan: AURKA / KINOMEscan: AURKC / KINOMEscan: BIKE / KINOMEscan: BMPR1A / KINOMEscan: BMPR1B / KINOMEscan: BMX / KINOMEscan: BRK / KINOMEscan: BRSK1 / KINOMEscan: BRSK2 / KINOMEscan: CAMK1 / KINOMEscan: CAMK1D / KINOMEscan: CAMK1G / KINOMEscan: CAMK2A / KINOMEscan: CAMK2B / KINOMEscan: AAK1 / KINOMEscan: CAMK2D / KINOMEscan: CAMK2G / KINOMEscan: ABL1(F317I)-nonphosphorylated / KINOMEscan: ABL1(F317I)-phosphorylated / KINOMEscan: ABL1(F317L)-nonphosphorylated: unit: % Ctrl
Details in all cases: Compound Concentration 10 µM
panel of 442 kinases [1] = target: T1, panel of 442 kinases (Homo sapiens, UniProt P51957)
T1 construct: purchased KINOMEscan
T1 sequence (P51957 whole entry): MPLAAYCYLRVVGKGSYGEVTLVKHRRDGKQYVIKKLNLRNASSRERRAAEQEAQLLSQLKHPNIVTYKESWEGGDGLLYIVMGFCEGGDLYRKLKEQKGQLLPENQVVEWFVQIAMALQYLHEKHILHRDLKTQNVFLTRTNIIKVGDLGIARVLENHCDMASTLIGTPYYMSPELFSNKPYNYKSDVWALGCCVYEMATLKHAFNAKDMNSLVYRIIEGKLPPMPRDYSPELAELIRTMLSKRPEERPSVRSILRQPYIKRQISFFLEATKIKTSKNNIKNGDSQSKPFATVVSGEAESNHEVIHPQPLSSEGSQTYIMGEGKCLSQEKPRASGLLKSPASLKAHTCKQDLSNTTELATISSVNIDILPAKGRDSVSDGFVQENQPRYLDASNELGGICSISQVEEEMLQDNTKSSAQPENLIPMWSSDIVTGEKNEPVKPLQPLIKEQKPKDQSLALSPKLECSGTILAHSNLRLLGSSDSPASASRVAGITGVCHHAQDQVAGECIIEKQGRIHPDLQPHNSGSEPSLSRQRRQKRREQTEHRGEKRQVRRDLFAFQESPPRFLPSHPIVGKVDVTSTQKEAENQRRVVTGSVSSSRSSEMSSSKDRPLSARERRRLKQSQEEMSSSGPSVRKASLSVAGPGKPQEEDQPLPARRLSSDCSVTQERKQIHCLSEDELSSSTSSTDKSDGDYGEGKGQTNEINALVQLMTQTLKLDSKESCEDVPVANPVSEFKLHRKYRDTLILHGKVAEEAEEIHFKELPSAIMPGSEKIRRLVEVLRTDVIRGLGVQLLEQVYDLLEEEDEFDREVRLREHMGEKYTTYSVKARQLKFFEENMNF
From the text: (§1) We assessed the selectivity of members of this scaffold using the KINOMEscan methodology across a near comprehensive panel of 442 kinases [[18,27]].

panel of 442 kinases [2] = target: T2, panel of 442 kinases (Homo sapiens, UniProt P32298)
T2 construct: purchased KINOMEscan
T2 sequence (P32298 whole entry): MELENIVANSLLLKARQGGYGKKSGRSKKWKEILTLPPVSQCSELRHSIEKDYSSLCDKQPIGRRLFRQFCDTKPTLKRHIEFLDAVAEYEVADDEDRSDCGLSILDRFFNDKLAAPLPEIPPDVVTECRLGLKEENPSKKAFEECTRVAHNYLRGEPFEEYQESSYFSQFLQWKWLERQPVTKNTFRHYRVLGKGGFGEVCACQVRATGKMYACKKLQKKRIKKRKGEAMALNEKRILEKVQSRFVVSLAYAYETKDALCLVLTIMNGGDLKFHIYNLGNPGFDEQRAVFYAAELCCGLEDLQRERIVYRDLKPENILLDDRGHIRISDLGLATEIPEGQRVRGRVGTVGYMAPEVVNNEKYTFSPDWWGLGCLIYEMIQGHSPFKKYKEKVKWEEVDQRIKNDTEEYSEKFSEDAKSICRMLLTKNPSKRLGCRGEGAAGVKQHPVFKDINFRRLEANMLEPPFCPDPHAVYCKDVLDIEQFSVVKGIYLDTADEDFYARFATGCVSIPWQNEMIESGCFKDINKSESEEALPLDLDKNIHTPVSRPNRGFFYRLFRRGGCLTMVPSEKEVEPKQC
From the text: as §1

panel of 442 kinases [3] = target: T3, panel of 442 kinases (Homo sapiens, UniProt Q9UQM7)
T3 construct: purchased KINOMEscan
T3 sequence (Q9UQM7 whole entry): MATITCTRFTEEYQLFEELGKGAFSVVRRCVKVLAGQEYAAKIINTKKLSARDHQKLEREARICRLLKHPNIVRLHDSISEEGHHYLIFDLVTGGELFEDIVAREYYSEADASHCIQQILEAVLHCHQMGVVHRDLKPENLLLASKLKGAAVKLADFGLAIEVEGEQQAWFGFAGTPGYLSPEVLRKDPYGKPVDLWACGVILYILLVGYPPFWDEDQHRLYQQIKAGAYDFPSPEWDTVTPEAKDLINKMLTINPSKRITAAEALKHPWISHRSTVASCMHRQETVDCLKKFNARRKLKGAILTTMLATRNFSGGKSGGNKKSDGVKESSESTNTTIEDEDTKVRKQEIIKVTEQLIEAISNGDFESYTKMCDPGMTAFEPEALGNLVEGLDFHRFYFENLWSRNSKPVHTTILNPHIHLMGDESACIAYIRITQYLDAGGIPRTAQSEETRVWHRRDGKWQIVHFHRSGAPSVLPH
From the text: as §1

panel of 442 kinases [4] = target: T4, panel of 442 kinases (Homo sapiens, UniProt Q08345)
T4 construct: purchased KINOMEscan
T4 sequence (Q08345 19-913): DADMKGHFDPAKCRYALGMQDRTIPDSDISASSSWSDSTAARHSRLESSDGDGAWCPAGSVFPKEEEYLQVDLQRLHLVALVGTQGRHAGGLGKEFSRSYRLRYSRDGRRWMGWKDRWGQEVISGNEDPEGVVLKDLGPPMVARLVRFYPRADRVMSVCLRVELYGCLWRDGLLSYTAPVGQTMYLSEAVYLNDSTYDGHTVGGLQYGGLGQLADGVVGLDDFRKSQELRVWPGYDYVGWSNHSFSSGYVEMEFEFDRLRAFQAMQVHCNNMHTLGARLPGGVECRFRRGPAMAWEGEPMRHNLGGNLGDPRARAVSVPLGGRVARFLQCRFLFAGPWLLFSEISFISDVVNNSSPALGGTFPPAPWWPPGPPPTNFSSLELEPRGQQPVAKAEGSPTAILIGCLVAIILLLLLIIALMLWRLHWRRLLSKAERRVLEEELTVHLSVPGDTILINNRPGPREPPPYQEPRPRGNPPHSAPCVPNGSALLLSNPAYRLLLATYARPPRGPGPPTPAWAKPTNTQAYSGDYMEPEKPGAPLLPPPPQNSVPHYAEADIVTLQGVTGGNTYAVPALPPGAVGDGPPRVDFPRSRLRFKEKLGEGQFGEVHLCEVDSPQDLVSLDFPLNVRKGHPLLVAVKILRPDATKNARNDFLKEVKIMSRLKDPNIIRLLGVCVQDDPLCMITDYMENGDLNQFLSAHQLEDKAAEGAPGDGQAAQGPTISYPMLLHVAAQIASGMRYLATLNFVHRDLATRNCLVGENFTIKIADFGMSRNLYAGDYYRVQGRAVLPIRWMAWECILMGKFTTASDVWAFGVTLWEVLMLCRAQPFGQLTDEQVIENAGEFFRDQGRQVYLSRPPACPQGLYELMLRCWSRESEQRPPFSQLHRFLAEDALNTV
From the text: as §1

## COc1cc(C(=O)N2CCC(N3CCN(C)CC3)CC2)ccc1Nc1ncc2c(n1)N(C)c1ccccc1C(=O)N2C [15 (LRRK2-IN-1)]
Panel of 442 kinases [1]
  KINOMEscan: NEK4: 95
Panel of 442 kinases [2]
  KINOMEscan: GRK4: 86
Panel of 442 kinases [3]
  KINOMEscan: CAMK2A: 21
Panel of 442 kinases [4]
  KINOMEscan: DDR1: 100

## COc1cc(C(=O)N2CCC(N3CCN(C)CC3)CC2)ccc1Nc1ncc2c(n1)N1CCc3cccc(c31)C(=O)N2C [Compound 24]
Panel of 442 kinases [3]
  KINOMEscan: CAMK2A: 44
Panel of 442 kinases [4]
  KINOMEscan: DDR1: 67

## COc1cc(C(=O)N2CCC(N3CCN(C)CC3)CC2)ccc1Nc1ncc2c(n1)N(C1CCCC1)c1ccccc1C(=O)N2C [Compound 25, 11-cyclopentyl-2-((2-methoxy-4-(4-(4-methylpiperazin-1-yl)piperidine-1-carbonyl)phenyl)amino)-5-methyl-5H-benzo[e]pyrimido[5,4-b][1,4]diazepin-6(11H)-one]
Panel of 442 kinases [1]
  KINOMEscan: NEK4: 97
Panel of 442 kinases [2]
  KINOMEscan: GRK4: 98
Panel of 442 kinases [3]
  KINOMEscan: CAMK2A: 81
Panel of 442 kinases [4]
  KINOMEscan: DDR1: 98

## CCOc1cc(C(=O)N2CCC(N3CCN(C)CC3)CC2)ccc1Nc1ncc2c(n1)N(C1CCCC1)c1ccccc1C(=O)N2C [Compound 26]
Panel of 442 kinases [1]
  KINOMEscan: NEK4: 89
Panel of 442 kinases [2]
  KINOMEscan: GRK4: 100
Panel of 442 kinases [3]
  KINOMEscan: CAMK2A: 100
Panel of 442 kinases [4]
  KINOMEscan: DDR1: 100
